{
  "source": "paper PMC7817688",
  "about": "“Identification of 3-chymotrypsin like protease (3CLPro) inhibitors as potential anti-SARS-CoV-2 agents” (Communications Biology, 2021)",
  "target": "SARS-CoV-2 3CLpro enzyme (Severe acute respiratory syndrome coronavirus 2, UniProt P0DTD1)",
  "experiment": "biochemical",
  "conditions": "50 µM drug, DMSO treated control = 100%, data of Figs. 2-4",
  "note": "“And” between values parts separate entries of the source, which are not always exact repeats. Equal entries are not always repeated.",
  "data": [
    {"substance": "Maraviroc", "values": [
      {"measurement": "percent enzymatic activity, individual values", "result": "91.5462% and 88.779% and 142.739%"}
    ]}
  ]
}
